Experimental findings from patent US7005418B1, “Method for the therapeutic management of extrauterine proliferation of endometrial tissue, chronic pelvic pain and fallopian tube obstruction” (Zentaris GmbH, priority 1999, dated 2006) are described below.

Non-standard residues stand in square brackets, D forms with d. Residues, ends and D or L forms follow the SMILES beside them. dPhe(4-Cl) = N[C@H](Cc1ccc(Cl)cc1)C(=O)O; d2Nal = N[C@H](Cc1ccc2ccccc2c1)C(=O)O; dCit = NC(=O)NCCC[C@@H](N)C(=O)O; d3Pal = N[C@H](Cc1cccnc1)C(=O)O

The subject of series [1] is patients with confirmed endometriosis. Kind of series: Weekly s.c. LHRH-antagonist treatment for 8 weeks in patients with endometriosis: clinical outcome and tolerability (2nd look laparascopy, histological biopsies). In kind it is in vivo, human (patients). The conditions noted are these: for hot flushes or other (estradiol) withdrawal symptoms / proliferation of the endometrium at the end of treatment (histological biopsies): patients with endometriosis, 3 mg weekly for 8 weeks. As to the method: (§1) The weekly administration of an adequate dose of an LHRH antagonist, e.g. 3 mg Cetrotide® s.c./ per week over a period of eight weeks leads to a controlled suppression of estrogen secretion so that serum concentrations between about 35 pg/ml and about 80 pg/ml, preferably between about 45–75 pg/ml, more preferably between about 50–75 pg/ml are obtained. […] Also the development of osteoporosis can be avoided.

The subject of the next series is estradiol secretion. Kind of series: Weekly s.c. LHRH-antagonist treatment for 8 weeks in patients with endometriosis: estradiol serum levels. In kind it is in vivo, human (patients). The conditions noted are these: weekly dose of 1 mg resp. 3 mg once per week. Here is the method: 3 mg once per week. The estradiol serum levels are between about 35–80 pg/ml, preferably between about 45–75 pg/ml, more preferably between about 50–75 pg/ml.
as §1

The mark [2] stands for this setting: nine patients with confirmed endometriosis, 3 mg s.c. weekly for 8 weeks.

For `CC(=O)N[C@H](Cc1ccc2ccccc2c1)C(=O)N[C@H](Cc1ccc(Cl)cc1)C(=O)N[C@H](Cc1cccnc1)C(=O)N[C@@H](CO)C(=O)N[C@@H](Cc1ccc(O)cc1)C(=O)N[C@H](CCCNC(N)=O)C(=O)N[C@@H](CC(C)C)C(=O)N[C@@H](CCCNC(=N)N)C(=O)N1CCC[C@H]1C(=O)N[C@H](C)C(N)=O` [Cetrorelix acetate] (Ac-[d2Nal][dPhe(4-Cl)][d3Pal]SY[dCit]LRP[dA]-NH2), in series [1] (setting [2]), the ovarian cyst formation entry is reported as “No ovarian cyst formation occurred” and the “progress of the disease, confirmed by 2nd look laparascopy” value was “without any progress of the disease”. In addition, in series [1], the “hot flushes or other (estradiol) withdrawal symptoms” value is listed as “avoiding any hot flushes or other withdrawal symptoms” and the “proliferation of the endometrium at the end of treatment (histological biopsies)” value is reported as “no proliferation of the endometrium”.

For the compound `CC(=O)N[C@H](Cc1ccc2ccccc2c1)C(=O)N[C@H](Cc1ccc(Cl)cc1)C(=O)N[C@H](Cc1cccnc1)C(=O)N[C@@H](CO)C(=O)N[C@@H](Cc1ccc(O)cc1)C(=O)N[C@H](CCCNC(N)=O)C(=O)N[C@@H](CC(C)C)C(=O)N[C@@H](CCCNC(=N)N)C(=O)N1CCC[C@H]1C(=O)N[C@H](C)C(N)=O` [Cetrorelix] (Ac-[d2Nal][dPhe(4-Cl)][d3Pal]SY[dCit]LRP[dA]-NH2), the “estradiol serum levels (FIG. 2)” value in the series on estradiol secretion was in the range of 35 to 80 pg/mL. Also, in series [1], the “hot flushes or other (estradiol) withdrawal symptoms” value is “without any signs of estradiol withdrawal symptoms” and the “proliferation of the endometrium at the end of treatment (histological biopsies)” value is on record as “without proliferation of the endometrium”.
